Entries after “also recorded” stand apart in the source; their conditions may differ. Read-outs that look alike come from different tables or passages of the source.
Legend:
[1] = tested on: DENV-R2A (Rluc-expressing DENV, serotype 2 strain 16681); assay: microbe, parasite or virus in culture; assay type: cell-based, Dengue virus
[2] = tested on: ZIKV-R2A (strain FSS13025); assay: microbe, parasite or virus in culture; assay type: cell-based; details: Zika virus, Huh7.5, 48 h
DENV2 16681s [3] = assay: Infectious viral titer by plaque assay, wild-type DENV2 in Huh7.5 cells; assay type: cell-based, Dengue virus; details: 50 μM, MOI 0.1, Huh7.5, 2 days postinfection
ZIKV H/PF/2013 = assay: Infectious viral titer by plaque assay, ZIKV in Huh7.5 cells; assay type: cell-based, Zika virus; details: 50 μM, MOI 0.1, Huh7.5, 2 days postinfection
WNV NY99 = assay: Extracellular infectious titer by plaque assay, WNV in Huh7.5 cells; assay type: cell-based, West Nile virus; details: 50 μM, Huh7.5
HCV, strain JFH-1 = assay type: cell-based, hepatitis C virus; details: 50 μM, JFH-1-Luc, Huh7.5, 2 days
SARS-CoV-2 = assay type: cell-based
MHV-A59 = assay: Infectious viral titer by plaque assay, MHV-A59 in DBT cells; assay type: cell-based, mouse hepatitis virus; details: 50 μM, MOI 0.0001, 1 day postinfection
DENV-R2A = assay type: cell-based, Dengue virus; details: 50 μM
sg-DENV-R2H = assay: Resistance selection with selectable subgenomic replicon sg-DENV-R2H in Huh7.5 cells; assay type: cell-based, Dengue virus; details: 100 µM, hygromycin 500 µg/mL, 31 days of dual selection
DENV2 16681s [4] = assay: Intracellular DENV vRNA (RT-qPCR) and NS4B (western blot) in infected Huh7.5 cells; assay type: cell-based, Dengue virus; details: 50 μM, MOI 0.1, Huh7.5, 2 days postinfection
[5] = target: ZIKV NS3/NS4B interaction (Zika virus, UniProt A0A024B7W1); assay: Coimmunoprecipitation assay of NS3/NS4B interaction; details: unpublished data
[6] = Cell viability, CellTiter-Glo luminescent assay; details: human, CC50 Huh 7.5, uninfected Huh7.5, 2 days, CellTiter-Glo
Huh7.5 cells = assay: Cell viability, CellTiter-Glo luminescent assay; details: for cell viability / cytotoxicity at the used concentration: Huh7.5
[7] = tested on: DENV vesicle packets (VP); assay: Replication-independent vesicle packet induction (pIRO-D) in Huh7/Lunet-T7 cells, TEM, western blot, immunofluorescence; details: 50 μM for 12 h, pIRO-D-transfected Huh7/Lunet-T7

Chain of ZIKV NS3/NS4B interaction (A0A024B7W1 1503-2119): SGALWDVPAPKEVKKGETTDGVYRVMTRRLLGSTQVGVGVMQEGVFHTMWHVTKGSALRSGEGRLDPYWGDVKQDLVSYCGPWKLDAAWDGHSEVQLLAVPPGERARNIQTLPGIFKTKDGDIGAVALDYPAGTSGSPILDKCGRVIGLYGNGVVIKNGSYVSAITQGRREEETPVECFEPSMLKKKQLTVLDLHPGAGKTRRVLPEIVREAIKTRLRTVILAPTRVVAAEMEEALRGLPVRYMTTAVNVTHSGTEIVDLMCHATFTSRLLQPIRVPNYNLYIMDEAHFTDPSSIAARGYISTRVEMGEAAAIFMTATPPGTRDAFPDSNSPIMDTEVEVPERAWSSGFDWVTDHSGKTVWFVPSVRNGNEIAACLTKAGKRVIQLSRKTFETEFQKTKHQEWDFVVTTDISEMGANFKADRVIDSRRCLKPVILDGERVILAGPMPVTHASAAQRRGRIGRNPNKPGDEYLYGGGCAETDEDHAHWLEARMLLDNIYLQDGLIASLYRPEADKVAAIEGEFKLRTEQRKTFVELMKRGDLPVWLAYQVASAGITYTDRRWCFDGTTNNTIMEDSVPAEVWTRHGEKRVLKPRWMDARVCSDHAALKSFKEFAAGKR
Chain of ZIKV NS3/NS4B interaction (A0A024B7W1 2270-2520): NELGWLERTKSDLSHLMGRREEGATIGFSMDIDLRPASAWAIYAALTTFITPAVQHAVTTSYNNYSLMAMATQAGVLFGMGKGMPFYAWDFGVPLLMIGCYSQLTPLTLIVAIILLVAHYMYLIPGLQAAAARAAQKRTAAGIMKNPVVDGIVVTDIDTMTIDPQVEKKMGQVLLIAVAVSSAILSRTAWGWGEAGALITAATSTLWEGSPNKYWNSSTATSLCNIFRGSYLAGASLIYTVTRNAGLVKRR

## CC(=O)c1ccc2cn[nH]c2c1 [Compound 6A1HI, 6-acetyl-1H-indazole]
[1]; 50 μM, Huh7.5, 2 days postinfection, vs DMSO
  decrease of viral replication (DENV-R2A): 714 fold
[1]; Dengue virus, Huh7.5, 48 h, read-out: DENV-R2A replication (Fold DMSO), 6A1HI analogues, test concentration = 50 µM, Huh7.5 cells
  activity at 50 µM: 3.77%
[1]; Dengue virus, Huh7.5, 48 h, read-out: DENV-R2A replication (fold DMSO) Mean, deconvolution screen, singletons, 50 µM, Huh7.5, 2 days postinfection
  activity at 50 µM: 0.244%
[1]; Dengue virus, Huh7.5, 48 h, read-out: DENV-R2A replication (fold DMSO), Table 2, 6A1HI analogues, 50 μM, Huh7.5, 2 days postinfection
  activity at 50 µM: 4%
[1]; Dengue virus, Huh7.5, 48 h, read-out: EC50 DENV-R2A
  EC50: 6.5 µM
[2]; read-out: EC50 ZIKV-R2A FSS13025
  EC50: 69.3 µM
[2]; read-out: ZIKV-R2A replication (fold DMSO) Mean
  activity at 50 µM: 29%
DENV2 16681s [3]
  decrease of infectious DENV particle production / DENV titers: more than 100 fold
  decrease of released infectious virions (plaque assay): ~3 Log10-fold
DENV2 16681s [3]; listed as 6A1H1
  decrease of infectious DENV particle production / DENV titers: up to 1,000 fold
ZIKV H/PF/2013
  reduction in ZIKV viral titers: 2 fold
WNV NY99
  impact on WNV replication: Only moderate impacts (if any)
HCV, strain JFH-1
  impact on HCV replication: Only moderate impacts (if any)
SARS-CoV-2
  anti-SARS-CoV-2 activity (reduction): less than 10 fold
SARS-CoV-2; 50 μM, Huh7.5
  impact on SARS-CoV-2 (betacoronavirus) replication: Only moderate impacts (if any)
MHV-A59
  impact on MHV replication: Only moderate impacts (if any); also recorded: did not impede
DENV-R2A; added 4 h after infection
  inhibitory activity when added after infection: retain their full inhibitory activity
DENV-R2A; added up to 8 h after infection, read 2 days postinfection
  inhibitory activity when added after infection: retained a strong inhibitory activity
sg-DENV-R2H
  selection of resistant cells (genetic barrier to resistance): unable to select resistant cells
DENV2 16681s [4]
  intracellular levels of DENV vRNA and NS4B: decrease
[5]
  formation and stability of ZIKV NS3/NS4B interaction: do not inhibit
[6]
  CC50 at 48 h: > 150 µM
Huh7.5 cells; 50 μM
  cell viability / cytotoxicity at the used concentration: unaffected
Huh7.5 cells; 50 μM, listed as 6A1H1
  cell viability / cytotoxicity at the used concentration: without any cytotoxicity
Huh7.5 cells; 6A1HI analogues, test concentration = 50 µM, Huh7.5 cells
  Cell viability (Fold DMSO): 0.93 Fold DMSO
Huh7.5 cells; Table 2, 6A1HI analogues, 50 μM, Huh7.5, 2 days
  Cell viability (Fold DMSO): 0.93 fold DMSO
Huh7.5 cells; deconvolution screen, singletons, 50 µM, uninfected Huh7.5
  Cell viability (fold DMSO) Mean: 0.80 fold DMSO
Huh7.5 cells; read-out: CC50 Huh 7.5, uninfected Huh7.5, 2 days, CellTiter-Glo
  CC50: 177 µM
[7]
  levels of viral protein NS3 (western blot): remained unchanged
